Measurements taken from patent publication US20250296959A1, “B7-H3 TARGETING PEPTIDES AND CONSTRUCTS THEREOF” (Mariana Oncology Inc., priority 2024, published 2025).
Starred links: 1 amine or outer side, 2 acyl side, 3 side chain; linkers in the order of their positions; H or OH if unused. Positions of bridges follow the written chain, without caps; N, C: chain ends. Non-standard residues stand in square brackets, D forms with d. Residues, ends and D or L forms follow the SMILES beside them. Groups on a side chain read outwards from the residue. *: point of attachment. Ala(piperidin-4-yl) = O=C([C@H](CC1CCN([*:3])CC1)N[*:1])[*:2]; DOTA = O=C(O)CN1CCN(CC(=O)O)CCN(CC(=O)*)CCN(CC(=O)O)CC1; NH(CH2CH2O)4CH2CO = O=C(COCCOCCOCCOCCN[*:1])[*:2]; Phe(4-COOH) = N[C@@H](Cc1ccc(C(=O)O)cc1)C(=O)O; Trp(5-F) = N[C@@H](Cc1c[nH]c2ccc(F)cc12)C(=O)O; X1 = C[C@@H](c1ccccc1)[C@H](N[*:1])C(=O)[*:2]; X11 = O=C(CCCc1ccc(I)cc1)NCCOCCOCCOCCOCC(=O)*; γGlu = O=C(O)[C@H](CCC(=O)[*:2])N[*:1]; 1Nal = N[C@@H](Cc1cccc2ccccc12)C(=O)O; Ala(4-THP) = N[C@@H](CC1CCOCC1)C(=O)O; Val(3-OH) = CC(C)(O)[C@H](N)C(=O)O; cisHyp = O=C(O)[C@@H]1C[C@H](O)CN1; Hyp = O=C(O)[C@@H]1C[C@@H](O)CN1; 4Pal = N[C@@H](Cc1ccncc1)C(=O)O; Chg = N[C@H](C(=O)O)C1CCCCC1; PEG4 = NCCOCCOCCOCCOCCC(=O)O; Suc = O=C(CCC(=O)[*:2])[*:1]; Tle = CC(C)(C)[C@H](N)C(=O)O; hLeu = CC(C)CC[C@H](N)C(=O)O; Orn = NCCC[C@H](N)C(=O)O

Target: T1, human 4lg B7-H3 (Homo sapiens, UniProt Q5ZPR3)
T1 sequence (Q5ZPR3 29-534): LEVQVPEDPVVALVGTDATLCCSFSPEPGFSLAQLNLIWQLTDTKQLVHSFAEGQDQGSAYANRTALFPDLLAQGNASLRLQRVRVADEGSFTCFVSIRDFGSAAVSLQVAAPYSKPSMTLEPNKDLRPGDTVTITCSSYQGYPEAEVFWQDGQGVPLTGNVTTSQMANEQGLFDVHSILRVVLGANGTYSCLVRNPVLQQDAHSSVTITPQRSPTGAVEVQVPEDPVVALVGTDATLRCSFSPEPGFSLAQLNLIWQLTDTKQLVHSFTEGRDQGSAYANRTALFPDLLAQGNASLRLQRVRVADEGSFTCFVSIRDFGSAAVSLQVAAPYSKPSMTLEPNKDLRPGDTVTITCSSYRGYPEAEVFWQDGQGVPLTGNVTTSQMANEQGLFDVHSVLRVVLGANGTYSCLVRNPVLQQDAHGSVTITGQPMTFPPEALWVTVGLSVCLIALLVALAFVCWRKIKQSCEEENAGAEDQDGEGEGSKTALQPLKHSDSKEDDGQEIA
Assay: Affinity determination by surface plasmon resonance (SPR) to 4Ig B7-H3
Conditions: 4Ig B7-H3

[1] = SPR KD—25° C., 25° C. flow cell temperature
[2] = SPR KD—37° C., 37° C. flow cell temperature

Row | SMILES | Kd [1] | Kd [2]
1 | CC(=O)N[C@@H](CCC(C)C)C(=O)N[C@@H](Cc1ccc(O)cc1)C(=O)N[C@H]1CSSC[C@@H](C(=O)N[C@@H](Cc2c[nH]c3ccccc23)C(=O)N[C@@H](Cc2ccccc2)C(=O)N[C@H](C(=O)N[C@H](CCCCNC(=O)CN2CCN(CC(=O)O)CCN(CC(=O)O)CCN(CC(=O)O)CC2)C(N)=O)[C@@H](C)O)NC(=O)[C@H](Cc2ccc(O)cc2)NC(=O)[C@H](C(C)C)NC(=O)[C@H](CC(=O)O)NC(=O)[C@H](Cc2ccc(O)cc2)NC(=O)[C@H](CCCCN)NC(=O)CNC(=O)[C@H](C(C)C)NC1=O [Cpd #67, Ac-hLeu-Y-C-V-G-K-Y-D-V-Y-C-W-F-Thr-dLys(DOTA)-CONH2] (Ac-[hLeu]YCVGKYDVYCWFT[dK](DOTA)-NH2; disulfide 3-11) | 1 to 10 nM | –
2 | CC(=O)N[C@@H](CCC(C)C)C(=O)N[C@@H](Cc1ccc(O)cc1)C(=O)N[C@H]1CSSC[C@@H](C(=O)N[C@@H](Cc2c[nH]c3ccccc23)C(=O)N[C@@H](Cc2ccccc2)C(=O)N[C@H](C(=O)N[C@H](CCCCNC(=O)CN2CCN(CC(=O)O)CCN(CC(=O)O)CCN(CC(=O)O)CC2)C(N)=O)[C@@H](C)O)NC(=O)[C@H](Cc2ccc(O)cc2)NC(=O)[C@H](C2CCCCC2)NC(=O)[C@H](CC(=O)O)NC(=O)[C@H](Cc2ccc(O)cc2)NC(=O)[C@H](CCCN)NC(=O)CNC(=O)[C@H](C(C)(C)C)NC1=O [compound 138, Ac-hLeu-Y-C-Tbg-G-Orn-Y-D-Chg-Y-C-W-F-Thr-dLys(DOTA)-CONH2] (Ac-[hLeu]YC[Tle]G[Orn]YD[Chg]YCWFT[dK](DOTA)-NH2; disulfide 3-11) | 1 to 10 nM | –
3 | CC(=O)N[C@@H](CCC(C)C)C(=O)N[C@@H](Cc1ccc(O)cc1)C(=O)N[C@H]1CSSC[C@@H](C(=O)N[C@@H](Cc2c[nH]c3ccc(F)cc23)C(=O)N[C@@H](Cc2ccccc2)C(=O)N[C@H](C(=O)N[C@H](CCCCNC(=O)CN2CCN(CC(=O)O)CCN(CC(=O)O)CCN(CC(=O)O)CC2)C(=O)O)C(C)(C)O)NC(=O)[C@H](Cc2ccc(O)cc2)NC(=O)[C@H](C(C)C)NC(=O)[C@H](CC(=O)O)NC(=O)[C@H](CC2CCOCC2)NC(=O)[C@H](CC2CCN(C(=O)COCCOCCOCCOCCNC(=O)CCCc3ccc(I)cc3)CC2)NC(=O)CNC(=O)[C@H](C(C)(C)C)NC1=O [Cpd #364, Ac-hLeu-Y-C-Tbg-G-Pip(PEG4-AB)Ala-ThpA-D-V-Y-C-5FW-F-hydroxyVal-dLys(DOTA)-COOH] (Ac-[hLeu]YC[Tle]G[Ala(piperidin-4-yl)](X11)[Ala(4-THP)]DVYC[Trp(5-F)]F[Val(3-OH)][dK](DOTA)-OH; disulfide 3-11) | – | 1 to 10 nM
4 | CC(=O)N[C@@H](CCC(C)C)C(=O)N[C@@H](Cc1ccc(O)cc1)C(=O)N[C@H]1CSSC[C@@H](C(=O)N[C@@H](Cc2cccc3ccccc23)C(=O)N[C@@H](Cc2ccccc2)C(=O)N2CCC[C@H]2C(=O)N[C@H](CCCCNC(=O)CC[C@H](NC(=O)CC[C@H](NC(=O)CN2CCN(CC(=O)O)CCN(CC(=O)O)CCN(CC(=O)O)CC2)C(=O)O)C(=O)O)C(N)=O)NC(=O)[C@H](Cc2ccc(O)cc2)NC(=O)[C@H](C(C)C)NC(=O)[C@H](CC(=O)O)NC(=O)[C@H](CC2CCOCC2)NC(=O)[C@H](CCCCN)NC(=O)CNC(=O)[C@H](C(C)(C)C)NC1=O [compound 275, Ac-hLeu-Y-C-Tbg-G-K-ThpA-D-V-Y-C-1Nal-F-Pro-dLys(gE-gE-DOTA)-CONH2] (Ac-[hLeu]YC[Tle]GK[Ala(4-THP)]DVYC[1Nal]FP[dK]([γGlu-γGlu-DOTA])-NH2; disulfide 3-11) | 1 to 10 nM | –
5 | CC(=O)N[C@@H](CCC(C)C)C(=O)N[C@@H](Cc1ccc(O)cc1)C(=O)N[C@H]1CSSC[C@@H](C(=O)N[C@@H](Cc2c[nH]c3ccccc23)C(=O)N[C@@H](Cc2ccccc2)C(=O)N[C@H](C(=O)N[C@H](CCCCNC(=O)CN2CCN(CC(=O)O)CCN(CC(=O)O)CCN(CC(=O)O)CC2)C(N)=O)[C@@H](C)O)NC(=O)[C@H](Cc2ccc(O)cc2)NC(=O)[C@H](C(C)C)NC(=O)[C@H](CC(=O)O)NC(=O)[C@H](Cc2ccc(O)cc2)NC(=O)[C@H](CC2CCNCC2)NC(=O)CNC(=O)[C@H](C(C)C)NC1=O [compound 154, Ac-hLeu-Y-C-V-G-PipAla-Y-D-V-Y-C-W-F-Thr-dLys(DOTA)-CONH2] (Ac-[hLeu]YCVG[Ala(piperidin-4-yl)]YDVYCWFT[dK](DOTA)-NH2; disulfide 3-11) | < 1 nM | –
6 | CC(C)CC[C@H](NC(=O)CCC(=O)O)C(=O)N[C@@H](Cc1ccc(O)cc1)C(=O)N[C@H]1CSSC[C@@H](C(=O)N[C@@H](Cc2c[nH]c3ccc(F)cc23)C(=O)N[C@@H](Cc2ccccc2)C(=O)N[C@H](C(=O)N[C@H](CCCCNC(=O)CN2CCN(CC(=O)O)CCN(CC(=O)O)CCN(CC(=O)O)CC2)C(=O)O)C(C)(C)O)NC(=O)[C@H](Cc2ccc(O)cc2)NC(=O)[C@H](C(C)C)NC(=O)[C@H](CC(=O)O)NC(=O)[C@H](CC2CCOCC2)NC(=O)[C@H](CC2CCNCC2)NC(=O)CNC(=O)[C@H](C(C)(C)C)NC1=O [compound 451, C4diacid-hLeu-Y-C-Tbg-G-PipAla-ThpA-D-V-Y-C-5FW-F-hydroxyVal-dLys(DOTA)-COOH] (Suc-[hLeu]YC[Tle]G[Ala(piperidin-4-yl)][Ala(4-THP)]DVYC[Trp(5-F)]F[Val(3-OH)][dK](DOTA)-OH; disulfide 3-11) | – | 1 to 10 nM
7 | CC(=O)N[C@@H](CCC(C)C)C(=O)N[C@@H](Cc1ccc(O)cc1)C(=O)N[C@H]1CSSC[C@@H](C(=O)N[C@@H](Cc2c[nH]c3ccc(F)cc23)C(=O)N[C@H](C(=O)N[C@H](C(=O)NCC(=O)O)C(C)(C)O)[C@@H](C)c2ccccc2)NC(=O)[C@H](Cc2ccc(O)cc2)NC(=O)[C@H](C(C)C)NC(=O)[C@H](CC(=O)O)NC(=O)[C@H](CC2CCN(C(=O)CCOCCOCCOCCOCCNC(=O)CN3CCN(CC(=O)O)CCN(CC(=O)O)CCN(CC(=O)O)CC3)CC2)NC(=O)[C@H](CC2CCNCC2)NC(=O)CNC(=O)[C@H](C(C)(C)C)NC1=O [compound 510, Ac-hLeu-Y-C-Tbg-G-PipAla-Pip(PEG4-DOTA)Ala-D-V-Y-C-5FW-[(2S, 3S)beta-Me-Phe]-hydroxyVal-Gly-COOH] (Ac-[hLeu]YC[Tle]G[Ala(piperidin-4-yl)][Ala(piperidin-4-yl)]([PEG4-DOTA])DVYC[Trp(5-F)][X1][Val(3-OH)]G-OH; disulfide 3-11) | – | < 1 nM
8 | CC(=O)N[C@@H](CCC(C)C)C(=O)N[C@@H](Cc1ccc(O)cc1)C(=O)N[C@H]1CSSC[C@@H](C(=O)N[C@@H](Cc2cccc3ccccc23)C(=O)N[C@@H](Cc2ccccc2)C(=O)N2C[C@@H](O)C[C@H]2C(N)=O)NC(=O)[C@H](Cc2ccc(O)cc2)NC(=O)[C@H](C(C)C)NC(=O)[C@H](CC(=O)O)NC(=O)[C@H](Cc2ccncc2)NC(=O)[C@H](CCCCNC(=O)CN2CCN(CC(=O)O)CCN(CC(=O)O)CCN(CC(=O)O)CC2)NC(=O)CNC(=O)[C@H](C(C)(C)C)NC1=O [compound 250, Ac-hLeu-Y-C-Tbg-G-Lys(DOTA)-4PyA-D-V-Y-C-1Nal-F-(cisHyp)-CONH2] (Ac-[hLeu]YC[Tle]GK(DOTA)[4Pal]DVYC[1Nal]F[cisHyp]-NH2; disulfide 3-11) | 10 to 100 nM | –
9 | CC(=O)N[C@@H](CCC(C)C)C(=O)N[C@@H](Cc1ccc(O)cc1)C(=O)N[C@H]1CSSC[C@@H](C(=O)N[C@@H](Cc2c[nH]c3ccc(F)cc23)C(=O)N[C@@H](Cc2ccc(C(=O)O)cc2)C(=O)N[C@H](C(=O)N[C@H](CCCCNC(=O)CN2CCN(CC(=O)O)CCN(CC(=O)O)CCN(CC(=O)O)CC2)C(N)=O)[C@@H](C)O)NC(=O)[C@H](Cc2ccc(O)cc2)NC(=O)[C@H](C(C)C)NC(=O)[C@H](CC(=O)O)NC(=O)[C@H](Cc2ccc(O)cc2)NC(=O)[C@H](CCCCN)NC(=O)CNC(=O)[C@H](C(C)C)NC1=O [compound 166, Ac-hLeu-Y-C-V-G-K-Y-D-V-Y-C-5FW-4COOHPhe-Thr-dLys(DOTA)-CONH2] (Ac-[hLeu]YCVGKYDVYC[Trp(5-F)][Phe(4-COOH)]T[dK](DOTA)-NH2; disulfide 3-11) | 10 to 100 nM | –
10 | CC(=O)N[C@@H](CCC(C)C)C(=O)N[C@@H](Cc1ccc(O)cc1)C(=O)N[C@H]1CSSC[C@@H](C(=O)N[C@@H](Cc2c[nH]c3ccc(F)cc23)C(=O)N[C@@H](Cc2ccccc2)C(=O)N2C[C@H](O)C[C@H]2C(=O)N[C@H](CCCCNC(=O)CN2CCN(CC(=O)O)CCN(CC(=O)O)CCN(CC(=O)O)CC2)C(N)=O)NC(=O)[C@H](Cc2ccc(O)cc2)NC(=O)[C@H](C(C)C)NC(=O)[C@H](CC(=O)O)NC(=O)[C@H](Cc2ccc(O)cc2)NC(=O)[C@H](CCCCN)NC(=O)CNC(=O)[C@H](C(C)C)NC1=O [compound 161, Ac-hLeu-Y-C-V-G-K-Y-D-V-Y-C-5FW-F-4OHPro-dLys(DOTA)-CONH2] (Ac-[hLeu]YCVGKYDVYC[Trp(5-F)]F[Hyp][dK](DOTA)-NH2; disulfide 3-11) | 1 to 10 nM | –
11 | CC(C)CC[C@H](NC(=O)COCCOCCOCCOCCNC(=O)CN1CCN(CC(=O)O)CCN(CC(=O)O)CCN(CC(=O)O)CC1)C(=O)N[C@@H](Cc1ccc(O)cc1)C(=O)N[C@H]1CSSC[C@@H](C(=O)N[C@@H](Cc2c[nH]c3ccc(F)cc23)C(=O)N[C@@H](Cc2ccccc2)C(=O)N2CCC[C@H]2C(=O)O)NC(=O)[C@H](Cc2ccc(O)cc2)NC(=O)[C@H](C(C)C)NC(=O)[C@H](CC(=O)O)NC(=O)[C@H](CC2CCOCC2)NC(=O)[C@H](CCCCN)NC(=O)CNC(=O)[C@H](C(C)(C)C)NC1=O [Cpd #306, DOTA-PEG4-hLeu-Y-C-Tbg-G-K-ThpA-D-V-Y-C-5FW-F-Pro-COOH] ({DOTA}-[NH(CH2CH2O)4CH2CO][hLeu]YC[Tle]GK[Ala(4-THP)]DVYC[Trp(5-F)]FP-OH; disulfide 4-12) | 10 to 100 nM | –
